Assay results published in PubChem BioAssay AID2060510 (Molecular Pharmacology Branch, DTP, NCI, 2025).

System: 439559-082-T-J2-PDC spheroids viability
Experiment: Anticancer human tumor 439559-082-T-J2-PDC patient-derived colon adenocarcinoma cell line growth inhibition [GQUAD]
Conditions: for IC50: curve of first compound; for viability, T/C: stronger effect = lower value
How it was run: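 Multi-cell-type spheroids of tumor cells with HUVEC and mesenchymal stem cells, treated with drug combinations. Concentrations descend in half-log steps from near clinical Cmax, or from 10 microM where Cmax is unknown; viability read-out.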

[1] = second compound 0.0316 µM, first compound 0.0316 µM
[2] = second compound 0.0316 µM, first compound 0.1 µM
[3] = second compound 0.0316 µM, first compound 0.316 µM
[4] = second compound 0.0316 µM, first compound 1 µM
[5] = second compound 0.0316 µM, first compound 3.16 µM
[6] = second compound 0.0316 µM, first compound 10 µM
[7] = second compound 0.1 µM, first compound 0.0316 µM
[8] = second compound 0.1 µM, first compound 0.1 µM
[9] = second compound 0.1 µM, first compound 0.316 µM
[10] = second compound 0.1 µM, first compound 1 µM
[11] = second compound 0.1 µM, first compound 3.16 µM
[12] = second compound 0.1 µM, first compound 10 µM
[13] = second compound 0.316 µM, first compound 0.0316 µM
[14] = second compound 0.316 µM, first compound 0.1 µM
[15] = second compound 0.316 µM, first compound 0.316 µM
[16] = second compound 0.316 µM, first compound 1 µM
[17] = second compound 0.316 µM, first compound 3.16 µM
[18] = second compound 0.316 µM, first compound 10 µM
[19] = second compound 1 µM, first compound 0.0316 µM
[20] = second compound 1 µM, first compound 0.1 µM
[21] = second compound 1 µM, first compound 0.316 µM
[22] = second compound 1 µM, first compound 1 µM
[23] = second compound 1 µM, first compound 3.16 µM
[24] = second compound 1 µM, first compound 10 µM
[25] = second compound 3.16 µM, first compound 0.0316 µM
[26] = second compound 3.16 µM, first compound 0.1 µM
[27] = second compound 3.16 µM, first compound 0.316 µM
[28] = second compound 3.16 µM, first compound 1 µM
[29] = second compound 3.16 µM, first compound 3.16 µM
[30] = second compound 3.16 µM, first compound 10 µM
[31] = second compound 10 µM, first compound 0.0316 µM
[32] = second compound 10 µM, first compound 0.1 µM
[33] = second compound 10 µM, first compound 0.316 µM
[34] = second compound 10 µM, first compound 1 µM
[35] = second compound 10 µM, first compound 3.16 µM
[36] = second compound 10 µM, first compound 10 µM
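Further: spheroids exposed to the agents for 7 days before readout.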
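Wherever viability, T/C is given: percent of luminescence signal in DMSO vehicle wells taken as 100% viability.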

For `C#Cc1c(F)ccc2cc(O)cc(-c3ncc4c(N5CC6CCC(C5)N6)nc(OCC56CCCN5CC(F)C6)nc4c3F)c12` (stereo unspecified) + CN(C)c1ccc(Nc2c3ccc(NC(=O)CCN4CCCC4)cc3nc3cc(NC(=O)CCN4CCCC4)ccc23)cc1, the IC50 (second compound 0.0316 µM) was > 10000 nM, the IC50 (second compound 0.1 µM) was 3880 nM and the IC50 (second compound 0.316 µM) was 6880 nM. The IC50 (second compound 1 µM) was > 10000 nM, the IC50 (second compound 3.16 µM) was 3740 nM and the IC50 (second compound 10 µM) was 3180 nM. It also gave a viability, T/C [1] of 83.6%, a viability, T/C [2] of 70.7% and a viability, T/C [3] of 66%. For the same compound, the viability, T/C [4] was 60.1%, the viability, T/C [5] was 56.1% and the viability, T/C [6] was 49.1%. The viability, T/C [7] was 94%, the viability, T/C [8] was 68.5% and the viability, T/C [9] was 73.1%. For the same compound, the viability, T/C [10] was 58.1%, the viability, T/C [11] was 54% and the viability, T/C [12] was 42.6%. For the same compound, the viability, T/C [13] was 79.3%, the viability, T/C [14] was 82.8% and the viability, T/C [15] was 62.2%. The viability, T/C [16] was 62%, the viability, T/C [17] was 55.5% and the viability, T/C [18] was 47.6%. For the same compound, the viability, T/C [19] was 91.5%, the viability, T/C [20] was 73.2% and the viability, T/C [21] was 64.6%. For the same compound, the viability, T/C [22] was 55.4%, the viability, T/C [23] was 61.8% and the viability, T/C [24] was 48.5%. The viability, T/C [25] was 81.9%, the viability, T/C [26] was 75.3% and the viability, T/C [27] was 69.1%. The viability, T/C [28] was 52.4%, the viability, T/C [29] was 55.2% and the viability, T/C [30] was 43.4%. The viability, T/C [31] was 84.4%, the viability, T/C [32] was 77.7% and the viability, T/C [33] was 62.5%. It also gave a viability, T/C [34] of 54.7%, a viability, T/C [35] of 56.4% and a viability, T/C [36] of 40.7%.
`CC(=O)O[C@H]1C(=O)[C@@]2(C)[C@H]([C@H](OC(=O)c3ccccc3)[C@]3(O)C[C@H](OC(=O)[C@H](O)[C@@H](NC(=O)c4ccccc4)c4ccccc4)C(C)=C1C3(C)C)[C@]1(OC(C)=O)CO[C@@H]1C[C@@H]2O` + CN(C)c1ccc(Nc2c3ccc(NC(=O)CCN4CCCC4)cc3nc3cc(NC(=O)CCN4CCCC4)ccc23)cc1 was tested, and the IC50 (second compound 0.0316 µM) was 2030 nM, the IC50 (second compound 0.1 µM) was 1830 nM and the IC50 (second compound 0.316 µM) was 2040 nM. For the same compound, the IC50 (second compound 1 µM) was 1790 nM, the IC50 (second compound 3.16 µM) was 2180 nM and the IC50 (second compound 10 µM) was 1360 nM. The viability, T/C [1] was 84.8%, the viability, T/C [2] was 77.7% and the viability, T/C [3] was 74.5%. The viability, T/C [4] was 62.8%, the viability, T/C [5] was 41.7% and the viability, T/C [6] was 29.9%. It also gave a viability, T/C [7] of 85.1%, a viability, T/C [8] of 83.7% and a viability, T/C [9] of 74.2%. The viability, T/C [10] was 60.9%, the viability, T/C [11] was 40.3% and the viability, T/C [12] was 31.6%. For the same compound, the viability, T/C [13] was 84%, the viability, T/C [14] was 82.3% and the viability, T/C [15] was 69.7%. The viability, T/C [16] was 60.4%, the viability, T/C [17] was 44% and the viability, T/C [18] was 30.7%. The viability, T/C [19] was 76.2%, the viability, T/C [20] was 82.9% and the viability, T/C [21] was 70%. It also gave a viability, T/C [22] of 64%, a viability, T/C [23] of 36.9% and a viability, T/C [24] of 28.9%. For the same compound, the viability, T/C [25] was 82.1%, the viability, T/C [26] was 84.6% and the viability, T/C [27] was 78.9%. It also gave a viability, T/C [28] of 65.8%, a viability, T/C [29] of 42.5% and a viability, T/C [30] of 26.7%. The viability, T/C [31] was 73.5%, the viability, T/C [32] was 73.9% and the viability, T/C [33] was 86.2%. It also gave a viability, T/C [34] of 56.6%, a viability, T/C [35] of 36.7% and a viability, T/C [36] of 27%.
Compound `CC(C)(O)C1CCC(Nc2ccc3ncc(-c4cccc(C(F)(F)F)c4)n3n2)CC1` (stereo unspecified) + CN(C)c1ccc(Nc2c3ccc(NC(=O)CCN4CCCC4)cc3nc3cc(NC(=O)CCN4CCCC4)ccc23)cc1 has an IC50 (second compound 0.0316 µM) of 1600 nM, an IC50 (second compound 0.1 µM) of 1650 nM and an IC50 (second compound 0.316 µM) of 1820 nM. It also gave an IC50 (second compound 1 µM) of 1660 nM, an IC50 (second compound 3.16 µM) of 1780 nM and an IC50 (second compound 10 µM) of 1580 nM. The viability, T/C [1] was 92.7%, the viability, T/C [2] was 94.7% and the viability, T/C [3] was 94%. It also gave a viability, T/C [4] of 78.1%, a viability, T/C [5] of 8.9% and a viability, T/C [6] of 9%. It also gave a viability, T/C [7] of 117%, a viability, T/C [8] of 111% and a viability, T/C [9] of 108%. For the same compound, the viability, T/C [10] was 77.5%, the viability, T/C [11] was 13.9% and the viability, T/C [12] was 10.1%. The viability, T/C [13] was 104%, the viability, T/C [14] was 96.9% and the viability, T/C [15] was 91.8%. It also gave a viability, T/C [16] of 90.3%, a viability, T/C [17] of 12.7% and a viability, T/C [18] of 10.6%. It also gave a viability, T/C [19] of 98.8%, a viability, T/C [20] of 101% and a viability, T/C [21] of 107%. It also gave a viability, T/C [22] of 82.1%, a viability, T/C [23] of 7.17% and a viability, T/C [24] of 11.9%. The viability, T/C [25] was 98.8%, the viability, T/C [26] was 101% and the viability, T/C [27] was 103%. For the same compound, the viability, T/C [28] was 89%, the viability, T/C [29] was 7.84% and the viability, T/C [30] was 13.6%. For the same compound, the viability, T/C [31] was 100%, the viability, T/C [32] was 110% and the viability, T/C [33] was 109%. For the same compound, the viability, T/C [34] was 77.1%, the viability, T/C [35] was 9.39% and the viability, T/C [36] was 7.34%.
